Source: patent US12396461B2, “Functional peptides having antimicrobial activity against phytopathogenic microorganisms” (TOYOTA JIDOSHA KABUSHIKI KAISHA, priority 2019, dated 2025)
Where “and” joins values, the source holds several entries; their conditions need not be identical. Equal entries are not always repeated. Entries after “also recorded” stand apart in the source; their conditions may differ. Where two headings read alike, the source gives them in different places. Where no end group is shown, it is not given here.

What was measured:
Botrytis cinerea [1] = assay: Botrytis cinerea leaf inoculation test (tomato leaf); assay type: in vivo; conditions: 25° C. for 2 days
Method: In the present example, a suspension comprising Botrytis cinerea and a peptide to be tested was dropped on a plant leaf, and lesions were then observed by visual inspection to evaluate the antimicrobial activity of the tested peptide. First, the pores of Botrytis cinerea were suspended in a potato dextrose broth (PDB) to result in a spore concentration of 5×10^5 spores/ml, so as to prepare a PDB suspension spore solution. Subsequently, a peptide to be tested (TsORF6-1) was added to the PDB suspension spore solution, so that the final concentration of the peptide to be tested became 0 μM, 1 μM, 10 μM or 100 μM. Thereafter, 10 μl each of the PDB suspension spore solution containing the peptide to be tested was dropped on the front side and the back side of the leaf of tomato (variety name: “Momotaro Fight”). In this condition, incubation was carried out at 25° C. for 2 days. Thereafter, the front and back sides of the leaf were observed by visual inspection.

[2] = tested on: Colletotrichum orbiculare; assay type: cell-based; parameters: key to Plate antimicrobial activity test Colletotrichum orbiculare, level: a case where hyphae extended to the entire well and no antimicrobial activity was found is defined as “level 0,”; a case where hyphae extended to less than a half of the well and thus the peptide inhibited the growth of the hyphae is defined as “level 1,”; a case where ungerminated spores were present and the peptide partially inhibited the germination is defined as “level 2,”; a case where all spores were ungerminated and the peptide completely inhibited the germination is defined as “level 3.”; conditions: for Plate antimicrobial activity test Colletotrichum orbiculare, level: 25° C. for 1 day or 2 days, microscopic observation
[3] = tested on: Colletotrichum destructivum; assay: Colletotrichum destructivum leaf inoculation test (Chinese cabbage leaf); assay type: in vivo; conditions: 25° C. for 4 days; for lesion of Colletotrichum destructivum on Chinese cabbage leaf, result in words: FIG. 3; for Leaf inoculation test Chinese cabbage/Colletotrichum destructivum: lesions by visual inspection, symbols ◯/Δ/X not defined
Method: In the present example, a suspension comprising Colletotrichum destructivum and a peptide to be tested was dropped on a plant leaf, and lesions were then observed by visual inspection to evaluate the antimicrobial activity of the tested peptide. First, the pores of Colletotrichum destructivum were suspended in water to result in a spore concentration of 5×10^5 spores/ml, so as to prepare a water suspension of spores. Subsequently, a peptide to be tested (TsORF6-1) was added to the water suspension of spores, so that the final concentration of the peptide to be tested became 0 μM, 1 μM, 10 μM or 100 μM. Thereafter, 10 μl each of the water suspension of spores containing the peptide to be tested was dropped on the front side and the back side of the leaf of Chinese cabbage (variety name: “Kigokoro 85”). In this condition, incubation was carried out at 25° C. for 4 days. Thereafter, the front and back sides of the leaf were observed by visual inspection.

Pyricularia oryzae = assay type: cell-based; parameters: key to Plate antimicrobial activity test Pyricularia oryzae, level: a case where hyphae extended to the entire well and no antimicrobial activity was found is defined as “level 0,”; a case where hyphae extended to less than a half of the well and thus the peptide inhibited the growth of the hyphae is defined as “level 1,”; a case where ungerminated spores were present and the peptide partially inhibited the germination is defined as “level 2,”; a case where all spores were ungerminated and the peptide completely inhibited the germination is defined as “level 3.”; conditions: for Plate antimicrobial activity test Pyricularia oryzae, level: 25° C. for 1 day or 2 days, microscopic observation
Ralstonia solanacearum = conditions: 100 μM
[4] = tested on: Erwinia carotovora subsp. carotovora; conditions: 100 μM
[5] = tested on: Colletotrichum destructivum; assay type: cell-based; parameters: key to Plate antimicrobial activity test Colletotrichum destructivum, level: a case where hyphae extended to the entire well and no antimicrobial activity was found is defined as “level 0,”; a case where hyphae extended to less than a half of the well and thus the peptide inhibited the growth of the hyphae is defined as “level 1,”; a case where ungerminated spores were present and the peptide partially inhibited the germination is defined as “level 2,”; a case where all spores were ungerminated and the peptide completely inhibited the germination is defined as “level 3.”; conditions: for Plate antimicrobial activity test Colletotrichum destructivum, level: 25° C. for 1 day or 2 days, microscopic observation
Botrytis cinerea [6] = assay type: cell-based; parameters: key to Plate antimicrobial activity test Botrytis cinerea, level: a case where hyphae extended to the entire well and no antimicrobial activity was found is defined as “level 0,”; a case where hyphae extended to less than a half of the well and thus the peptide inhibited the growth of the hyphae is defined as “level 1,”; a case where ungerminated spores were present and the peptide partially inhibited the germination is defined as “level 2,”; a case where all spores were ungerminated and the peptide completely inhibited the germination is defined as “level 3.”; conditions: for Plate antimicrobial activity test Botrytis cinerea, level: 25° C. for 1 day or 2 days, microscopic observation
[7] = tested on: Pseudomonas syringae pv. tomato
Fusarium oxysporum = assay type: cell-based; parameters: key to Plate antimicrobial activity test Fusarium oxysporum, level: a case where hyphae extended to the entire well and no antimicrobial activity was found is defined as “level 0,”; a case where hyphae extended to less than a half of the well and thus the peptide inhibited the growth of the hyphae is defined as “level 1,”; a case where ungerminated spores were present and the peptide partially inhibited the germination is defined as “level 2,”; a case where all spores were ungerminated and the peptide completely inhibited the germination is defined as “level 3.”
[8] = tested on: Xanthomonas oryzae pv. oryzae
[9] = tested on: plant pathogenic filamentous fungi; assay type: cell-based; conditions: Table 3
[10] = (FIG. 1, Table 3), concentration not given

Row | Substance | Plate antimicrobial activity test Colletotrichum orbiculare, level ([2]; peptide 1 μM) | Plate antimicrobial activity test Colletotrichum orbiculare, level ([2]; peptide 10 μM) | Plate antimicrobial activity test Colletotrichum orbiculare, level ([2]; peptide 100 μM) | Leaf inoculation test Chinese cabbage/Colletotrichum destructivum ([3]; peptide 10 μM) | Leaf inoculation test Chinese cabbage/Colletotrichum destructivum ([3]; peptide 100 μM) | Plate antimicrobial activity test Pyricularia oryzae, level (Pyricularia oryzae; peptide 1 μM) | Plate antimicrobial activity test Pyricularia oryzae, level (Pyricularia oryzae; peptide 10 μM) | Plate antimicrobial activity test Pyricularia oryzae, level (Pyricularia oryzae; peptide 100 μM) | Plate antimicrobial activity test Colletotrichum destructivum, level ([5]; peptide 1 μM) | Plate antimicrobial activity test Colletotrichum destructivum, level ([5]; peptide 10 μM) | Plate antimicrobial activity test Colletotrichum destructivum, level ([5]; peptide 100 μM) | Plate antimicrobial activity test Botrytis cinerea, level (Botrytis cinerea [6]; peptide 1 μM) | Plate antimicrobial activity test Botrytis cinerea, level (Botrytis cinerea [6]; peptide 10 μM) | Plate antimicrobial activity test Botrytis cinerea, level (Botrytis cinerea [6]; peptide 100 μM) | Plate antimicrobial activity test Fusarium oxysporum, level (Fusarium oxysporum) | germination inhibitory activity against plant pathogenic filamentous fungi, result in words [9] | other results
1 | MKVMIVVKTKVKNKKVAKMMVK [TsORF6-1] | 0 | 0 | 2 | ◯ | ◯ | 0 | 0 | 2 | 0 | 0 | 3 | 0 | 0 | 3 | 2 and 0 |  | Leaf inoculation test Tomato/Botrytis cinerea (Botrytis cinerea [1]; peptide 100 μM, tomato leaf, lesions by visual inspection, symbols ◯/Δ/X not defined): ◯; germination of Colletotrichum orbiculare, result in words [2, 10]: completely inhibited in terms of germination; also recorded: could inhibit germination; lesion of Colletotrichum destructivum on Chinese cabbage leaf, result in words ([3]; water suspension of spores containing 10 μl peptide): a lesion of Colletotrichum destructivum was not observed; lesion of Colletotrichum destructivum on Chinese cabbage leaf, result in words ([3]; water suspension of spores containing 100 μl peptide): a lesion of Colletotrichum destructivum was not observed; germination of Pyricularia oryzae, result in words (Pyricularia oryzae; [10]): completely inhibited in terms of germination; also recorded: could inhibit germination; Inhibitory rate Ralstonia solanacearum (Ralstonia solanacearum; calculated from OD600 versus water added): −5.2%; OD600 Ralstonia solanacearum (Ralstonia solanacearum; cultured at 28° C. a whole day and night): 2.7; Inhibitory rate Erwinia carotovora subsp. carotovora [4]: −14.9%; OD600 Erwinia carotovora subsp. carotovora [4]: 2.2; germination of Colletotrichum destructivum, result in words [5, 10]: completely inhibited in terms of germination; also recorded: could inhibit germination; germination of Botrytis cinerea, result in words (Botrytis cinerea [6]; [10]): completely inhibited in terms of germination; also recorded: could inhibit germination; growth of Pseudomonas syringae pv. tomato, result in words [7]: could inhibit the growth; Inhibitory rate Pseudomonas syringae pv. tomato ([7]; 100 μM): 90.6%; OD600 Pseudomonas syringae pv. tomato ([7]; 100 μM): 0.2; germination of Fusarium oxysporum, result in words (Fusarium oxysporum): completely inhibited in terms of germination; also recorded: could inhibit germination; Inhibitory rate Xanthomonas oryzae pv. oryzae ([8]; 100 μM, calculated from OD600 versus water added): 47.6%; OD600 Xanthomonas oryzae pv. oryzae ([8]; 100 μM, cultured at 28° C. a whole day and night): 1.1; growth of Xanthomonas oryzae pv. oryzae, result in words ([8]; Table 4): could inhibit the growth
2 | VMIVVKTK (listed as Solanum lycopersicum) [TsORF6-1-8aa-3, partial peptide of TsORF6-1, 8 amino acid residues] | 0 | 0 | 3 | ◯ | ◯ | 0 | 0 | 3 | 0 | 0 | 3 | 0 | 0 | 3 | 3 and 0 | extremely excellent germination inhibitory activity | 
3 | VAKMM (listed as Solanum lycopersicum) [TsORF6-1-5aa-16, partial peptide of TsORF6-1, 5 amino acid residues] | 0 | 0 | 0 |  | ◯ | 0 | 0 | 0 | 0 | 0 | 0 | 0 | 0 | 0 | 0 | extremely excellent germination inhibitory activity | 
4 | MKVMIVVKTKVKNKKVAKMMVKEDEKNKRVITMKEELMVVAEEEAYRRV RGGMGW (MKVMIVVKTKVKNKKVAKMMVKEDEKNKRVITMKEELMVVAEEEAYRRVRGGMGW; listed as Solanum lycopersicum) [TsORF6, peptide consisting of 55 amino acid residues identified in tomato xylem sap; total chain] | 0 | 0 | 1 | ◯ | ◯ | 0 | 0 | 2 | 0 | 0 | 0 | 0 | 0 | 3 | 3 and 0 |  | lesion of Botrytis cinerea on tomato leaf, result in words (Botrytis cinerea [1]; FIG. 2, PDB suspension spore solution containing 100 μl peptide): a lesion of Botrytis cinerea was not observed
